The text below walks through data of US12336991B2, “Factor XIIA inhibitors” (UNIVERSITY OF LEEDS, priority 2018, dated 2025).

Broadly, the Ki is a measure of affinity in units of concentration, obtained from inhibition or displacement. A high value points to a looser hold on the target.

What all share (type): biochemical
For one assay, the target named is T1, thrombin (Homo sapiens, UniProt P00734).
T1 construct: FXa (5 nM) and thrombin (5 nM)
The assay can be described thus: Determination of selectivity: thrombin inhibition, chromogenic substrate GPR assay. The conditions noted are these: fold selectivity for FXIIa over thrombin. The procedure, abridged:
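Thrombin (5 nM) preincubated with compound 10 min at 37 °C in 50 mM Tris, 137 mM NaCl, pH 7.4, 5% DMSO, then GPR substrate ([…]) added. Absorbance at 405 nm read kinetically for 3 h; IC50 from initial rates, converted to Ki via Ki=IC50/(1+[S]/Km).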

The target of the next assay is T2, FXIIa (Homo sapiens, UniProt P00748).
T2 sequence (P00748 373-615 limits assumed): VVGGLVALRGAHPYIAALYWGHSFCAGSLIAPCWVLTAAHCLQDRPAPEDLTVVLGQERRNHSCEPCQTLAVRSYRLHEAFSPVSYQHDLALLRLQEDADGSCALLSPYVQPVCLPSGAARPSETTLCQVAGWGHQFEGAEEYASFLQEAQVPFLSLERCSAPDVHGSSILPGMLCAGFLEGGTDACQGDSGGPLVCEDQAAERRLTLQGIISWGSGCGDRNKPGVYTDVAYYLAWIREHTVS
T2 sequence (P00748 20-372 partner limits assumed): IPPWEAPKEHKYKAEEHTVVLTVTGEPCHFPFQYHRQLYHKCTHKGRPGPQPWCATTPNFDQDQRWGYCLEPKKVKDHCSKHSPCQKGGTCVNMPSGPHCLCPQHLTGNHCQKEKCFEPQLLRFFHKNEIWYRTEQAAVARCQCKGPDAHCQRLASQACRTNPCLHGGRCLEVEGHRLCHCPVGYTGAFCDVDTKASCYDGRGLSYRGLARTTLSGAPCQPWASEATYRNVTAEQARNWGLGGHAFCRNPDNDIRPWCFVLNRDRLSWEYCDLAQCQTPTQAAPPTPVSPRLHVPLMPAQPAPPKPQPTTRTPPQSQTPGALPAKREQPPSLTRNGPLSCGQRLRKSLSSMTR
As to the kind of experiment: Determination of Factor XIIa inhibition, chromogenic substrate S-2302 assay. To be noted: human FXIIa alpha. The procedure, abridged:
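FXIIa (10 nM) preincubated with compound 10 min at 37° C. in 50 mM Tris, 137 mM NaCl pH 7.4, 5% DMSO, top concentration 500 μM, then S-2302 added ([…]). Absorbance at 405 nm read kinetically for 3 h; IC50 from initial rates, converted to Ki by Cheng-Prusoff.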

The next assay concerns the target FXa (Homo sapiens, UniProt P00742). As to the kind of experiment: Determination of selectivity: FXa inhibition, chromogenic substrate S2765 assay. The conditions noted are these: fold selectivity for FXIIa over FXa. In outline: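 Human FXa (5 nM) preincubated with compound (top 500 μM, 5% DMSO) 10 min at 37 °C in 50 mM Tris, 137 mM NaCl pH 7.4, then S2765 ([…]) added; A405 kinetics over 3 h at 37 °C. IC50 from initial rates, converted to Ki via Cheng-Prusoff.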

Sequence of FXa (P00742 235-488 limits assumed): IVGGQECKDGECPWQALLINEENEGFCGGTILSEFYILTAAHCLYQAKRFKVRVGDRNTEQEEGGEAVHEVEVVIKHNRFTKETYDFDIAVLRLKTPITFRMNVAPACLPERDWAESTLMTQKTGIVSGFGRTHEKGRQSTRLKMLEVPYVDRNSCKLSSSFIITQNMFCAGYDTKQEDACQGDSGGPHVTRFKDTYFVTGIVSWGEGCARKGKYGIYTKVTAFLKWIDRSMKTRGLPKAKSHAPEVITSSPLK
Sequence of FXa (P00742 41-179 partner limits assumed): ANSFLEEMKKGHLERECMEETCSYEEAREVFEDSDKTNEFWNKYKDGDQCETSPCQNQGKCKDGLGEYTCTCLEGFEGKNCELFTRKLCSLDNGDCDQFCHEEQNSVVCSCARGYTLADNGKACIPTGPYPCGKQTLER

As for `COc1ccc(C[C@@H]2C[C@@H](C(=O)NCc3ccc4c(c3)nnn4C)N(C(=O)[C@H]3CC(c4cccnc4C(F)(F)F)CN3)C2)cc1` (stereo partly drawn) [Example M05421], on thrombin, the “Thrombin (human)/FXIIa alpha (human)” value is given as “+++ (fold selectivity values greater than 100)”. The same molecule registered an inhibition constant Ki on FXIIa of 0.2 to 2 µM. At FXa, the “FXa (human)/FXIIa alpha (human)” value was “∘∘∘”.
Taken in the same sequence, the figures for `COc1ccc(C[C@@H]2C[C@@H](C(=O)NCc3cc4cnccc4o3)N(C(=O)[C@H](N)CCC(=O)N3CCCC3)C2)cc1` [Example M05404] were “+++ (fold selectivity values greater than 100)”, less than 0.2 µM and “∘∘∘”.
On the same counts, the results for `Cn1nnc2cc(CNC(=O)[C@@H]3C[C@H](Cc4cccc(F)c4)CN3C(=O)[C@H](N)CCC(=O)N3CCCC3)ccc21` [Example M05232] are “+++ (fold selectivity values greater than 100)”, 0.2 to 2 µM and “∘∘∘”.
Taken in the same sequence, the figures for `CCOc1ccc(C[C@@H]2C[C@@H](C(=O)NCc3ccc4c(c3)nnn4C)N(C(=O)[C@H]3C[C@@H](c4ccccc4)CN3)C2)cc1` [Example M05382] were “+++ (fold selectivity values greater than 100)”, 0.2 to 2 µM and “∘∘∘”.
In the case of `Cn1nnc2cc(CNC(=O)[C@@H]3C[C@@H](Cc4cccc5c4CCO5)CN3C(=O)[C@H]3C[C@@H](c4ccccc4)CN3)ccc21` [Example M05371], the “Thrombin (human)/FXIIa alpha (human)” value at thrombin is reported as “++ (fold selectivity value of 10 to 100)”. Also, on FXIIa, the inhibitory constant (Ki) is greater than 2 µM. Besides, the “FXa (human)/FXIIa alpha (human)” value on FXa was “∘∘”.
Taken in the same sequence, the figures for `Cn1nnc2cc(CNC(=O)[C@@H]3C[C@H](NCCc4ccccc4)CN3C(=O)[C@H](N)CCc3ccccc3)ccc21` [Example M05205] were “++ (fold selectivity value of 10 to 100)”, greater than 2 µM and “∘∘”.
Taken in the same sequence, the figures for `COc1ccc(C[C@@H]2C[C@@H](C(=O)NCc3ccc4c(c3)nnn4C)N(C(=O)[C@H]3CC(c4ccccc4C)CN3)C2)cc1` (stereo partly drawn) [Example M05365] were “+++ (fold selectivity values greater than 100)”, 0.2 to 2 µM and “∘∘∘”.
Taken in the same sequence, the figures for `COc1ccc(C[C@@H]2C[C@@H](C(=O)NCc3ccc4c(c3)nnn4C)N(C(=O)[C@H](N)CCc3ccc(F)cc3)C2)cc1` [Example M00949] were “+++ (fold selectivity values greater than 100)”, 0.2 to 2 µM and “∘∘”.
`COc1ccc(C[C@@H]2C[C@@H](C(=O)NCc3ccc4c(c3)nnn4C)N(C(=O)[C@H](N)CCC(=O)N3CCC[C@H]3C(C)C)C2)cc1` [Example M05407]: the “Thrombin (human)/FXIIa alpha (human)” value on thrombin is given as “+++ (fold selectivity values greater than 100)”. This molecule also displayed a Ki on FXIIa of less than 0.2 µM. Further, the “FXa (human)/FXIIa alpha (human)” value on FXa is reported as “∘∘∘”.
On the same counts, the results for `Cn1nnc2cc(CNC(=O)[C@@H]3CC(Cc4ccccc4C#N)CN3C(=O)[C@H](N)CCC(=O)N3CCCC3)ccc21` (stereo partly drawn) [Example M05320] are “+++ (fold selectivity values greater than 100)”, less than 0.2 µM and “∘∘∘”.
For the molecule `NCc1ccc(CNC(=O)[C@@H]2CCCN2C(=O)[C@H](N)CCc2cccnc2)cc1` [Example M00808], on thrombin, the “Thrombin (human)/FXIIa alpha (human)” value is recorded as “+ (fold selectivity values less than 10)”. The same molecule showed a Ki on FXIIa greater than 2 µM. For the same molecule, at FXa, the “FXa (human)/FXIIa alpha (human)” value is “∘∘”.
On the same counts, the results for `Nc1cc(CNC(=O)[C@@H]2C[C@@](O)(c3ccccc3)CN2C(=O)[C@H](N)CCc2ccccc2)ccn1` [Example M05125] are “++ (fold selectivity value of 10 to 100)”, 0.2 to 2 µM and “∘∘”.
On the same counts, the results for `Cn1nnc2cc(CNC(=O)[C@@H]3CC(Cc4ccnc(F)c4)CN3C(=O)[C@H](N)CCC(=O)N3CCCC3)ccc21` (stereo partly drawn) [Example M05314] are “++ (fold selectivity value of 10 to 100)”, 0.2 to 2 µM and “∘∘∘”.
For `Cn1nnc2cc(CNC(=O)[C@@H]3C[C@@H](Cc4cccc(Br)c4)CN3C(=O)[C@H]3C[C@@H](c4ccccc4)CN3)ccc21` [Example M05366], the “Thrombin (human)/FXIIa alpha (human)” value on thrombin was “++ (fold selectivity value of 10 to 100)”. This molecule had a Ki on FXIIa of 0.2 to 2 µM. Besides, the “FXa (human)/FXIIa alpha (human)” value at FXa was “∘∘”.
`COc1cc(CNC(=O)[C@@H]2CCCN2C(=O)[C@H](N)CCc2ccccc2)cnc1CN` [Example M05053]: on thrombin, the “Thrombin (human)/FXIIa alpha (human)” value is given as “+ (fold selectivity values less than 10)”. Also, at FXIIa, the Ki was greater than 2 µM. The “FXa (human)/FXIIa alpha (human)” value on FXa is on record as “∘∘”.
Taken in the same sequence, the figures for `Cn1nnc2cc(CNC(=O)[C@@H]3C[C@H](c4ccc(F)cc4)CN3C(=O)[C@H](N)CCc3ccccc3)ccc21` [Example M05157] were “++ (fold selectivity value of 10 to 100)”, greater than 2 µM and “∘∘”.
Taken in the same sequence, the figures for `CN(C)[C@H](CCC(=O)N1CCCC1)C(=O)N1C[C@H](Cc2cccnc2)C[C@H]1C(=O)NCc1ccc2c(c1)c(Cl)nn2C` [Example M05219] were “+++ (fold selectivity values greater than 100)”, less than 0.2 µM and “∘∘∘”.
Taken in the same sequence, the figures for `Cn1nnc2cc(CNC(=O)[C@@H]3C[C@H](N)CN3C(=O)[C@H](N)CCc3ccccc3)ccc21` [Example M05143] were “++ (fold selectivity value of 10 to 100)”, greater than 2 µM and “∘∘”.
As to `Nc1nccc2cc(CNC(=O)[C@@H]3C[C@H](c4ccccc4)CN3C(=O)[C@H](N)CCC(=O)N3CCCC3)ccc12` [Example M05281], the “Thrombin (human)/FXIIa alpha (human)” value on thrombin is “++ (fold selectivity value of 10 to 100)”. The same molecule had a Ki on FXIIa of 0.2 to 2 µM. For the same molecule, at FXa, the “FXa (human)/FXIIa alpha (human)” value was “∘”.
Taken in the same sequence, the figures for `Cn1ncc2cc(CNC(=O)[C@@H]3C[C@@H](Cc4ccncc4)CN3C(=O)[C@H](N)CCC(=O)N3CCCC3)ccc21` [Example M05244] were “+++ (fold selectivity values greater than 100)”, less than 0.2 µM and “∘∘∘”.
On the same counts, the results for `COc1ccc(C[C@@H]2C[C@@H](C(=O)NCc3ccc4c(c3)nnn4C)N(C(=O)[C@H](N)CCC(=O)N3CC[C@H](F)C3)C2)cc1` [Example M05400] are “+++ (fold selectivity values greater than 100)”, less than 0.2 µM and “∘∘∘”.
On the same counts, the results for `Cn1nccc1-c1cccc(C[C@@H]2C[C@@H](C(=O)NCc3ccc4c(c3)nnn4C)N(C(=O)[C@H](N)CCC(=O)N3CCCC3)C2)c1` [Example M05350, (2S,4R)-1-((R)-2-Amino-5-oxo-5-pyrrolidin-1-yl-pentanoyl)-4-[3-(2-methyl-2H-pyrazol-3-yl)-benzyl]-pyrrolidine-2-carboxylic acid (1-methyl-1H-benzotriazol-5-ylmethyl)-amide] are “+++ (fold selectivity values greater than 100)”, 0.2 to 2 µM and “∘∘∘”.
